Laboratory results published in US10285966B2, “10-hydroxy-cis-12-octadecenoic acid alkyl ester and use thereof” (NITTO PHARMACEUTICAL INDUSTRIES, LTD., priority 2015, dated 2019).

Assay: State (liquid or solid) at ambient temperature by visual observation
Assay type: physicochemical
Conditions: for State at standard temperature: Table 1; for liquid or solid at ambient temperature: ambient temperature (about 15-25° C.), visual observation
Procedure: The compounds (1)-(3) of the present invention are desirably liquid at ambient temperature. In the present specification, the ambient temperature refers to the ambient temperature (15° C.-25° C.) defined in the Japanese Pharmacopoeia, 16th edition, General Rules, the Japanese Pharmacopoeia, 17th edition, General Rules. In addition, “about” here means ±1° C.
Whether the compounds of Examples 1 and 2 and HYA of Comparative Example are liquid or solid at ambient temperature (about 15-25° C.) was confirmed by visual observation.

Compound | State at standard temperature | liquid or solid at ambient temperature
CCCCC/C=C\CC(O)CCCCCCCCC(=O)OCC (stereo not drawn) [Example 1, ethyl 10-hydroxy-cis-12-octadecenoate] | liquid | liquid
CCCCC/C=C\CC(O)CCCCCCCCC(=O)OCCC (stereo not drawn) [Example 2, propyl 10-hydroxy-cis-12-octadecenoate] | – | liquid
CCCCC/C=C\CC(O)CCCCCCCCC(=O)O (stereo not drawn) [HYA, 10-hydroxy-cis-12-octadecenoic acid] | solid | solid
